{
  "source": "ChEMBL document CHEMBL1201862",
  "about": "“PubChem BioAssay data set” (2004)",
  "key": {"[1]": {"target": "T1, Hexokinase HKDC1 (Homo sapiens, UniProt Q2TB90)", "T1 sequence (Q2TB90 whole entry)": "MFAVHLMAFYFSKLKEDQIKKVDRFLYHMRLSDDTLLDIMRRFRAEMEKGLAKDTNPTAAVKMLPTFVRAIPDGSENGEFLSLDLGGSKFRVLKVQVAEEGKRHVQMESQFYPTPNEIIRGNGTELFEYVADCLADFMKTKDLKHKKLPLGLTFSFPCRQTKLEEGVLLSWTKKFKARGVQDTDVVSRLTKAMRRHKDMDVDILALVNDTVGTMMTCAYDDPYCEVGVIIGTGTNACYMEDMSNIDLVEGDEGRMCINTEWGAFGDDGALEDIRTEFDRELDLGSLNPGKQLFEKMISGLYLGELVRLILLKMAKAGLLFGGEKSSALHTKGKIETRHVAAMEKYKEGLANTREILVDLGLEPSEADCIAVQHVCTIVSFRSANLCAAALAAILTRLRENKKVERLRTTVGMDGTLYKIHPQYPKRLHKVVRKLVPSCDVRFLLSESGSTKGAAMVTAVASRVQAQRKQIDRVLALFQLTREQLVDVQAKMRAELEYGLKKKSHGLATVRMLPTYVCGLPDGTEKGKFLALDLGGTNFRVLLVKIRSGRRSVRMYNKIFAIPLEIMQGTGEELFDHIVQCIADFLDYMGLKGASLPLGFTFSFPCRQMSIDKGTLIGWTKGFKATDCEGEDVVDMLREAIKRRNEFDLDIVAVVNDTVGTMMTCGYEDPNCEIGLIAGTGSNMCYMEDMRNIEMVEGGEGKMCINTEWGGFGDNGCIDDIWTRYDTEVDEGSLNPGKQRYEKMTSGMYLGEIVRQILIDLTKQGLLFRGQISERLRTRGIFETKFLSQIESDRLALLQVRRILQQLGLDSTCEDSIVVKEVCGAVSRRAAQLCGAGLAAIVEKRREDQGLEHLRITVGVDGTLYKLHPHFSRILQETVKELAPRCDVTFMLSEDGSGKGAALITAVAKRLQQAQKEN", "assay": "SAR analysis of small molecule inhibitors of hexokinase domain containing I (HKDC1). [Related pubchem assays (depositor defined):AID493160, AID493190]", "type": "functional"}, "[2]": {"target": "T2, Hexokinase-1 (Homo sapiens, UniProt P19367)", "T2 sequence (P19367 whole entry)": "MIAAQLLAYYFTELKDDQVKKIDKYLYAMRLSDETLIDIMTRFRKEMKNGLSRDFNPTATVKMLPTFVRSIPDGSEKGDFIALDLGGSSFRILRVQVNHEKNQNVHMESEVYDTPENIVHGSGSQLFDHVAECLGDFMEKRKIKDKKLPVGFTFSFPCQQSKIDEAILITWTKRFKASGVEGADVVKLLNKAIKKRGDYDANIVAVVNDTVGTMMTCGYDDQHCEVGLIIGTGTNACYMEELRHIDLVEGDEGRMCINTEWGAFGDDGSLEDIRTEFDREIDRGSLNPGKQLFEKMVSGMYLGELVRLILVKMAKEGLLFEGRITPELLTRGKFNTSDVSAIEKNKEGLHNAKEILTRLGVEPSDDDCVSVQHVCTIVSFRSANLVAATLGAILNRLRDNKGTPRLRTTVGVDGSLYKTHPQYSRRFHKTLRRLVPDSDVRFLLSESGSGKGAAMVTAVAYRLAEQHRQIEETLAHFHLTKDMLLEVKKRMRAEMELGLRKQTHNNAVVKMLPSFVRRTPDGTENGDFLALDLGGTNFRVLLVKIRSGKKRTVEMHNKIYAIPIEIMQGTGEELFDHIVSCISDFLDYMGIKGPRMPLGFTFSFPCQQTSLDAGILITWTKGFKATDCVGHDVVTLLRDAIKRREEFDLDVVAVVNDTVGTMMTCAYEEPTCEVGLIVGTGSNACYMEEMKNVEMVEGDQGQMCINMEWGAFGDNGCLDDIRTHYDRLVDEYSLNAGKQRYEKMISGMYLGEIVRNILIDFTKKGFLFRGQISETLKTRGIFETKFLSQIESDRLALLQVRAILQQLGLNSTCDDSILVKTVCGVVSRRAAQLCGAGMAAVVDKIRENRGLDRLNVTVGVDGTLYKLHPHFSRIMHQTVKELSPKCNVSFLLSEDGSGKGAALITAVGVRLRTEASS", "assay": "SAR analysis of small molecule inhibitors of hexokinase domain containing I (HKDC1) in the hexokinase 1 selectivity assay. [Related pubchem assays (depositor defined):AID493160, AID493190]", "type": "functional"}, "[3]": {"target": "Melanin-concentrating hormone receptor 1 (Homo sapiens, UniProt Q99705)", "sequence (Q99705 whole entry)": "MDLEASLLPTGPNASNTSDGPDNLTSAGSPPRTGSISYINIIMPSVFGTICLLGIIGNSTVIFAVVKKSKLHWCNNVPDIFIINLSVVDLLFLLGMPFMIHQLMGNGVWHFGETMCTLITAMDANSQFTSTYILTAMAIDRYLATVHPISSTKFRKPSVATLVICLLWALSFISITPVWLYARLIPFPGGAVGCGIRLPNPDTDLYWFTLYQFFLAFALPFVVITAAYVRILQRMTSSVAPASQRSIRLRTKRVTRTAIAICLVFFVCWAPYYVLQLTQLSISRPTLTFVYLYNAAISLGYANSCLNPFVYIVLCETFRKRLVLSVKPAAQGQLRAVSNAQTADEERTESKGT", "assay": "Late-stage fluorescence-based counterscreen for antagonists of the G-protein coupled receptor 7 (GPR7): cell-based dose response assay to identify antagonists of the melanin-concentrating hormone receptor 1 (MCHR1) Set 5.", "type": "functional"}, "[4]": {"target": "T3, Streptokinase A (Streptococcus pyogenes serotype M1, UniProt P10520)", "T3 sequence (P10520 whole entry)": "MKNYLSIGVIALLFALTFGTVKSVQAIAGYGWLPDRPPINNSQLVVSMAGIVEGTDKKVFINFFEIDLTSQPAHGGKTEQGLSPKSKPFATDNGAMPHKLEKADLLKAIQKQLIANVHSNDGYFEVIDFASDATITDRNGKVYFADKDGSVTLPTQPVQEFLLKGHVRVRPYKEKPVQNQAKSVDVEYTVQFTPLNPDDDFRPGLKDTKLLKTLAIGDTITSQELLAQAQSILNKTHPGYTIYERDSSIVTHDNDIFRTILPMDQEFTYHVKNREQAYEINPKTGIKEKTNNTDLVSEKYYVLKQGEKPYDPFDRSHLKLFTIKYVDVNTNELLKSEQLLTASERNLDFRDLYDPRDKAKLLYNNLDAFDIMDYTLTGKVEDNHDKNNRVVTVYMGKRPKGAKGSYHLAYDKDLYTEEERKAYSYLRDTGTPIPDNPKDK", "assay": "S. pyogenes streptokinase expression inhibitors, potency, dose response, plasminogen activation absorbance, OD405 (AID 1914);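 also: secreted streptokinase activity via plasminogen activation per viability signal from cell pellet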", "type": "functional, Streptococcus pyogenes M1 GAS"}, "[5]": {"system": "BJ", "assay": "cytotoxicity toward BJ-TERT-LT-ST fibroblasts, dose response, cell-based, RAS-independent, luminescence (AID 1935);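 also: BJ fibroblasts immortalized with TERT plus LT and ST oncogenes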", "type": "functional", "details": "Homo sapiens"}, "[6]": {"assay": "cytotoxicity toward NIH3T3 fibroblasts, dose response, counter-screen, cell-based, ATP luminescence, mouse fibroblasts (AID 2010);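 also: cells exposed to compound for about 90 hours before reading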", "type": "functional"}, "[7]": {"target": "ATP-dependent molecular chaperone HSP82 (Candida albicans (strain WO-1) (Yeast), UniProt C4YTQ8)", "sequence (C4YTQ8 whole entry)": "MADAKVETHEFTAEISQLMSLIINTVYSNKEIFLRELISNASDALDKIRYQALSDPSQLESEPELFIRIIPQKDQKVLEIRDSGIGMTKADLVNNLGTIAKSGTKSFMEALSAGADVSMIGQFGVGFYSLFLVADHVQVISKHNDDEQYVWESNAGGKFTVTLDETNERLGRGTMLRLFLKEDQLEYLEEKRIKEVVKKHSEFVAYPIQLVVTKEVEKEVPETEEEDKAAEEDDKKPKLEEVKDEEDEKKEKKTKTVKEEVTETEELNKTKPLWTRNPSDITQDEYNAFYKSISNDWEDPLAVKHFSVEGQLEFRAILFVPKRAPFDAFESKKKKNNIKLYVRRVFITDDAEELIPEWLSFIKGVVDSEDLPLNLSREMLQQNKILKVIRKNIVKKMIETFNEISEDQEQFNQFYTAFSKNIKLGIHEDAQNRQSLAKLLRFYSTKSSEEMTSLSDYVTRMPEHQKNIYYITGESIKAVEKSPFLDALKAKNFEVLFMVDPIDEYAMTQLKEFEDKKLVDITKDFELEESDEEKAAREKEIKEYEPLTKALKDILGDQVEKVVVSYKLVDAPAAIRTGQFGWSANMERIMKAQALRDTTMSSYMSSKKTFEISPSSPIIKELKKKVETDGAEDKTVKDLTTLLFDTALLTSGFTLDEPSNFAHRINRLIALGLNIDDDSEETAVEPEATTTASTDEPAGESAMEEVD", "assay": "loss of DOC-induced GRE-beta-galactosidase reporter signal, dose response, Hsp90 inhibitor project, S. cerevisiae, luminescence (AID 2400);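 also: beta-galactosidase luminescence from glucocorticoid response element reporter as proxy for Hsp90 function; inhibitor potency where signal loss means Hsp90 inhibition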", "type": "functional, cell-based"}, "[8]": {"system": "BJ", "assay": "cells", "type": "functional, cell-based", "details": "Homo sapiens"}, "[9]": {"system": "BJ", "assay": "cytotoxicity toward BJ-TERT fibroblasts, dose response, cell-based, RAS-independent, luminescence (AID 1933)", "type": "functional", "details": "Homo sapiens"}, "[10]": {"assay": "NIH-3T3 fibroblast cytotoxicity, dose response, cytotoxicity control, cell-based, fluorescence, Alamar Blue, secondary assay (AID 2327);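 also: NIH-3T3 mouse fibroblasts cultured with fluconazole at 8 µg/mL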", "type": "functional"}, "[11]": {"assay": "inhibitors of intracellular T. cruzi replication, confirmation, NIH3T3 host cells, beta-gal luminescence (AID 2044);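 also: luminescent beta-galactosidase reporter signal from transgenic T. cruzi replicating inside host cells; inhibitors lower the luminescence signal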", "type": "functional, cell-based"}, "[12]": {"target": "Serine/threonine-protein phosphatase (Candida dubliniensis (strain CD36 / CBS 7987 / NCPF 3949 / NRRLY-17841) (Yeast), UniProt B9W6M3)", "sequence (B9W6M3 whole entry)": "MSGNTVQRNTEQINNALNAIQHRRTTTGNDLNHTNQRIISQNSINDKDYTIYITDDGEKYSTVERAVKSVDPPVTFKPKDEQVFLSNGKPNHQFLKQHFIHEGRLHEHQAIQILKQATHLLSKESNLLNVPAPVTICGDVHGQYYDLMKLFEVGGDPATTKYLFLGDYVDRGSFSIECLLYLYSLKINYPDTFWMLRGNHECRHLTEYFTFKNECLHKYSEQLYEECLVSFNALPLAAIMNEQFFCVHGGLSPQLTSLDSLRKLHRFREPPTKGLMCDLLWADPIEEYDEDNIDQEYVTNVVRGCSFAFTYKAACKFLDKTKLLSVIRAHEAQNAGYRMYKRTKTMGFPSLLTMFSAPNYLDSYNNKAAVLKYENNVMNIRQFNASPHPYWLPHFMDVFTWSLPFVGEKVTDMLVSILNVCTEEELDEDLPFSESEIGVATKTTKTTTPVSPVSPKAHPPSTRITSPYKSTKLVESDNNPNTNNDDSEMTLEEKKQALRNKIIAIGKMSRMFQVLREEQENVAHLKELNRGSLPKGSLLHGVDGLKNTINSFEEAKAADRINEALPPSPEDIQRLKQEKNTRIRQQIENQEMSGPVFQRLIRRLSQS", "assay": "calcineurin pathway inhibitors in yeast reporter, dose response, S. cerevisiae, CDRE-lacZ, luminescence, secondary (AID 2388);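 also: yeast reporter cells carrying a calcineurin-responsive lacZ construct stimulated with calcium chloride; luminescent beta-galactosidase reporter signal in whole cells rather than isolated phosphatase activity; potency for inhibition where a drop in reporter signal means calcineurin blockade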", "type": "functional, cell-based"}, "[13]": {"system": "INS1", "assay": "beta cell apoptosis inhibitors, cytokine rescue, dose response, luminescence, retest (AID 449756);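 also: cell death triggered by IL-1 beta plus TNF-alpha plus IFN-gamma mixture; protective hits raise ATP signal compared with cytokine alone wells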", "type": "functional, cell-based", "details": "Rattus norvegicus"}, "[14]": {"assay": "C. albicans growth with fluconazole, confirmation, fluorescence, retest (AID 2467)", "type": "functional, cell-based"}, "[15]": {"system": "Streptococcus sp. 'group A'", "assay": "growth inhibition of control SK(-) GAS strain, dose response, counter-screen for streptokinase expression inhibitor project, luminescence, kanamycin, BacTiterGlo, confirmation (AID 1900)", "type": "functional, organism-based"}, "[16]": {"assay": "cytotoxicity toward DRD oncogenic fibroblasts, dose response, cell-based, non-viral oncogenic, luminescence (AID 1934)", "type": "functional", "details": "Homo sapiens"}, "[17]": {"system": "Streptococcus", "assay": "Group A Streptococcus viability loss, dose response, counter-screen for streptokinase expression inhibitor project, luminescence, BacTiterGlo (AID 1915);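 also: potency for reduction of bacterial viability or growth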", "type": "functional, organism-based"}},
  "note": "Calls of active or inactive are those of the source. Rule as the data show it, for most assays here: actives have a measured EC50 and inactives only a lower limit.",
  "data": [
    {"smiles": "O=C(Nc1nnc(SCc2ccccc2)s1)c1ccc2ncsc2c1", "values": [
      {"measurement": "IC50", "setting": "[1]", "value": "> 80 µM (inactive)"},
      {"measurement": "IC50", "setting": "[2]", "value": "> 80 µM (inactive)"}
    ]},
    {"smiles": "CCc1ccccc1Cn1ncc(Cl)c(Oc2ccc(OC)cc2)c1=O", "values": [
      {"measurement": "IC50", "setting": "[3]", "value": "4.62 µM (active)"}
    ]},
    {"smiles": "Nc1nonc1-n1nnc(C(=O)N/N=C/c2cc(Cl)ccc2O)c1CN1CCCCCC1", "values": [
      {"measurement": "EC50", "setting": "[4]", "value": "> 150 µM (not active)"},
      {"measurement": "EC50", "setting": "[5]", "value": "> 75 µM (not active)"},
      {"measurement": "EC50", "setting": "[6]", "value": "6.91 µM (active)"},
      {"measurement": "EC50", "setting": "[7]", "value": "> 150 µM (inactive)"},
      {"measurement": "EC50", "setting": "[8]", "value": "115 µM (active)"},
      {"measurement": "EC50", "setting": "[9]", "value": "24.9 µM (active)"},
      {"measurement": "EC50", "setting": "[10]", "value": "29.6 µM (active)"},
      {"measurement": "EC50", "setting": "[11]", "value": "1.39 µM (active)"},
      {"measurement": "EC50", "setting": "[12]", "value": "> 180 µM (inactive)"},
      {"measurement": "AC50", "setting": "[13]", "value": "1.85 µM (active)"},
      {"measurement": "EC50", "setting": "[14]", "value": "296 nM (active)"},
      {"measurement": "EC50", "setting": "[15]", "value": "4.87 µM (active)"},
      {"measurement": "EC50", "setting": "[16]", "value": "55.4 µM (active)"},
      {"measurement": "EC50", "setting": "[17]", "value": "20.4 µM (active)"}
    ]}
  ]
}
